Test results: ChEMBL document CHEMBL4184240, “Potent human glutaminyl cyclase inhibitors as potential anti-Alzheimer's agents: Structure-activity relationship study of Arg-mimetic region” (Bioorg Med Chem, 2018)
Activity calls are given as the source filed them. The rule behind the calls is not given here.

Tests used:
[1] = Permeability of the compound at pH 7.4 after 30 mins by PAMPA; type: ADME; details: pH 7.4, 0.5 h
[2] = Cytotoxicity against mouse HT22 cells assessed as cell viability at 10 uM relative to control; type: cell-based, HT-22; details: read-out: Activity
hERG (KCNH2) = hERG (KCNH2) (Homo sapiens, UniProt Q12809); assay: Inhibition of human ERG at 10 uM relative to control
Chain of hERG (KCNH2) (Q12809 whole entry): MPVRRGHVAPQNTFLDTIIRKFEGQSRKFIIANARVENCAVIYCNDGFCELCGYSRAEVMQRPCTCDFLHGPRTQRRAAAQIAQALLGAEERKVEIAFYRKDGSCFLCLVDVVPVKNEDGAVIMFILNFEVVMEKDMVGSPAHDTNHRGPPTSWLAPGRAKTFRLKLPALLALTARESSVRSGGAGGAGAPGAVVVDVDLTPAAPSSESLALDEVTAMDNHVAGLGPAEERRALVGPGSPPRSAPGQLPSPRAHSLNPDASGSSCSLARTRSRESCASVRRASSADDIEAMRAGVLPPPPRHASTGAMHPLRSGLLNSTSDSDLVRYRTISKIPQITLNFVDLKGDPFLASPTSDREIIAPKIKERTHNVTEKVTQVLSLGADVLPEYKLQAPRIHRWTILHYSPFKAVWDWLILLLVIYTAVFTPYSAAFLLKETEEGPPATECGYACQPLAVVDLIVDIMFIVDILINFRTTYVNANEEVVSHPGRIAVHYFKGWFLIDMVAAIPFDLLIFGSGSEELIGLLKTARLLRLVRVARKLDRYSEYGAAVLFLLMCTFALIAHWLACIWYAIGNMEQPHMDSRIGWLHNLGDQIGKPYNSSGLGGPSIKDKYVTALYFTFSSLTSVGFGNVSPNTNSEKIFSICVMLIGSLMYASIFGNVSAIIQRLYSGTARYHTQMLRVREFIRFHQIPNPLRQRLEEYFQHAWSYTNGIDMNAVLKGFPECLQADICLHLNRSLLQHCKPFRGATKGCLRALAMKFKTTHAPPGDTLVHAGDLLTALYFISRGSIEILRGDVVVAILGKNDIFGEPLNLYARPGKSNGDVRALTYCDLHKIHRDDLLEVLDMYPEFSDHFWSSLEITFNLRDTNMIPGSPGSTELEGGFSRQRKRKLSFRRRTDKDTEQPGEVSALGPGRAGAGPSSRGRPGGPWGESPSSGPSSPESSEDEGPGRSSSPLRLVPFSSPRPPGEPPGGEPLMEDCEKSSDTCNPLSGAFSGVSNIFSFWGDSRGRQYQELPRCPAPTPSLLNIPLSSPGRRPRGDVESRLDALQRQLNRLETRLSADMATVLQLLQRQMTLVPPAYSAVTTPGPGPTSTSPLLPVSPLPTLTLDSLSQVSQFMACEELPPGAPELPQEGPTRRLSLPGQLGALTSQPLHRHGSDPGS

Mus musculus [3] = species: Mus musculus; assay: animal or person; details: ICR, central, read-out: INH
Description: (§1) Antialzheimer activity in human amyloid beta (3 to 40) induced acute ICR mouse Alzheimer's disease mouse model assessed as inhibition of amyloid beta (N3pE to 40) formation in brain at 25 mg/kg, icv administered via deep cortical/hippocampal tissue measured next day by sandwich ELISA relative to control

Mus musculus [4] = species: Mus musculus; details: ICR, 25 mg/kg
Description: as §1

Row | Structure (SMILES) | log(permeability) [1] | viability at 10 µM [2] [%] | inhibition at 10 µM (hERG (KCNH2)) [%] | inhibition in vivo at 25 mg/kg (Mus musculus [3]) [%] | inhibition (Mus musculus [4])
1 | COc1cc(NC(=S)NCCCn2cncc2C)ccc1OCCN1CC(C)NC(C)C1 (stereo not given) | -5.3 | 100 | 2.5 | – | inactive
2 | COc1cc(NC(=S)NCCCn2cncc2C)ccc1OCc1ccc(C2CCNCC2)cc1 | -5.8 | 100 | 40.1 | 30 | –
3 | COc1cc(NC(=S)NCCCn2cncc2C)ccc1Oc1ccc(C2=CCNCC2)cc1 | -4.9 | 100 | 52.8 | 16.1 | –
4 | COc1cc(NC(=S)NCCCn2cncc2C)ccc1Oc1ccc(C2CCNCC2)cc1 | -5.6 | 100 | 72.8 | – | inactive
5 | COc1cc(NC(=S)NCCCn2cncc2C)ccc1OCCN1CCN(CCOCCN)CC1 | – | 51.1 | – | – | –
6 | COc1cc(NC(=S)NCCCn2cncc2C)ccc1OCCCCc1ccnc(NCCN)c1 | -10 | 100 | 31.5 | – | inactive
7 | COc1cc(NC(=S)NCCCn2cncc2C)ccc1OCC(=O)N1CCN(CCN)CC1 | -10 | 100 | 14 | – | inactive
8 | COc1cc(NC(=S)NCCCn2cncc2C)ccc1Oc1ccc(N2CCNCC2)cc1 | -5.6 | 100 | 39.7 | – | inactive
9 | COc1cc(NC(=S)NCCCn2cncc2C)ccc1OCCCCc1ccnc(NCCO)c1 | -10 | 100 | 44.4 | – | inactive

More lines, main results first:

Row | log(permeability) [1] | Structure (SMILES) | viability at 10 µM [2] [%] | inhibition at 10 µM (hERG (KCNH2)) [%] | inhibition in vivo at 25 mg/kg (Mus musculus [3]) [%] | inhibition (Mus musculus [4])
10 | -5.8 | COc1cc(NC(=S)NCCCn2cncc2C)ccc1OCCN1CCNCC1C (stereo not given) | 100 | 33.4 | 3.01 | –
11 | -5.6 | COc1cc(NC(=S)NCCCn2cncc2C)ccc1OCCC(=O)NC1CCNCC1 | 100 | 5 | 13.5 | –
12 | -6 | COc1cc(NC(=S)NCCCn2cncc2C)ccc1OCCN1CCN(CCO)CC1 | 100 | 9.7 | – | inactive
13 | -5.7 | COc1cc(NC(=S)NCCCn2cncc2C)ccc1OCCN1CCN(CCN)CC1 | 100 | 2.5 | 5.43 | –
14 | -5.7 | COc1cc(NC(=S)NCCCn2cncc2C)ccc1OCCCC(=O)N1CCNCC1 | 100 | 1.9 | 8.07 | –
15 | -8.7 | COc1cc(NC(=S)NCCCn2cncc2C)ccc1OCCCCN1CCN(CCO)CC1 | 100 | – | – | –
16 | -10 | COc1cc(NC(=S)NCCCn2cncc2C)ccc1OCCCN1CCN(CCN)CC1 | 100 | 28.9 | – | inactive
17 | -5.7 | COc1cc(NC(=S)NCCCn2cncc2C)ccc1OCCC(=O)N1CCNCC1 | 100 | 1.7 | 18.7 | –
18 | -6.4 | COc1cc(NC(=S)NCCCn2cncc2C)ccc1OCC(=O)NC1CCN(CCN)CC1 | 100 | 17.8 | – | inactive
19 | -10 | COc1cc(NC(=S)NCCCn2cncc2C)ccc1OCCCCN1CCN(CCN)CC1 | 100 | 21.1 | – | inactive
20 | -6.7 | COc1cc(NC(=S)NCCCn2cncc2C)ccc1OCCC1CCN(CCO)CC1 | 100 | 8.2 | 0.19 | –
